# In patent US6737383B1, “Herbicidal oxadiazolidines” (priority 1999, dated 2004):
# How the values were obtained:
# sugar beet = assay: Test B pre/postemergence sugar beet; format: in vivo, Beta vulgaris; details: for Sugarbeets plant response rating: Postemergence; for Plant response rating, Sugarbeets: Preemergence
# How it was run: (§1)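 Test chemicals in a non-phytotoxic solvent mixture with surfactant were sprayed preemergence onto planted seeds and postemergence onto plants 2 to 18 cm tall (1- to 4-leaf stage). After twelve to sixteen days in a greenhouse, injury was visually rated against untreated controls from 0 (no effect) to 10 (complete control).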
# surinam grass = assay: Test B pre/postemergence surinam grass; format: in vivo, Brachiaria decumbens; details: for B. signalgrass plant response rating: Postemergence; for Plant response rating, B. signalgrass: Preemergence
# How it was run: as §1
# wheat = assay: Test B pre/postemergence wheat; format: in vivo, Triticum aestivum; details: for Wheat plant response rating: Postemergence; for Plant response rating, Wheat: Preemergence
# How it was run: as §1
# velvetleaf = assay: Test B pre/postemergence velvetleaf; format: in vivo, Abutilon theophrasti; details: for Velvetleaf plant response rating: Postemergence; for Plant response rating, Velvetleaf: Preemergence
# How it was run: as §1
# rape = assay: Test B pre/postemergence rape; format: in vivo, Brassica napus; details: for Rape plant response rating: Postemergence; for Plant response rating, Rape: Preemergence
# How it was run: as §1
# crabgrass = assay: Test B pre/postemergence crabgrass; format: in vivo, Digitaria sanguinalis; details: for Crabgrass plant response rating: Postemergence; for Plant response rating, Crabgrass: Preemergence
# How it was run: as §1
# corn = assay: Test B pre/postemergence corn; format: in vivo, Zea mays; details: for Corn plant response rating: Postemergence; for Plant response rating, Corn: Preemergence
# How it was run: as §1
# blackgrass = assay: Test B pre/postemergence blackgrass; format: in vivo, Alopecurus myosuroides; details: for Blackgrass plant response rating: Postemergence; for Plant response rating, Blackgrass: Preemergence
# How it was run: as §1
# duck salad = assay: Test B flood test duck salad; format: in vivo, Heteranthera limosa
# How it was run: (§2)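 Each value is a visual injury score relative to controls, with 10 meaning complete control and 0 no effect. Evaluation took place twelve to sixteen days after the 2-leaf-stage plants were treated and kept in the greenhouse.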
# rice = assay: Test B flood test rice; format: in vivo, Oryza sativa
# How it was run: as §2
# giant foxtail = assay: Test B pre/postemergence giant foxtail; format: in vivo, Setaria faberii; details: for Giant foxtail plant response rating: Postemergence; for Plant response rating, Giant foxtail: Preemergence
# How it was run: as §1
# bamyardgrass = assay: Test B flood test barnyardgrass; format: in vivo, Echinochloa crus-galli
# How it was run: as §2
# morningglory = assay: Test B pre/postemergence morningglory; format: in vivo, Ipomoea hederacea; details: for Morningglory plant response rating: Postemergence; for Plant response rating, Morningglory: Preemergence
# How it was run: as §1
# pigweed = assay: Test B pre/postemergence pigweed; format: in vivo, Amaranthus retroflexus; details: for Redroot pigweed plant response rating: Postemergence; for Plant response rating, Redroot pigweed: Preemergence
# How it was run: as §1
# smallflower flatsedge = assay: Test B flood test smallflower flatsedge; format: in vivo, Cyperus difformis
# How it was run: as §2
# soybean = assay: Test B pre/postemergence soybean; format: in vivo, Glycine max; details: for Soybean plant response rating: Postemergence; for Plant response rating, Soybean: Preemergence
# How it was run: as §1
# bedstraw = assay: Test B pre/postemergence bedstraw; format: in vivo, Galium aparine; details: Postemergence, Rate 1000 g/ha; scale 0 to 10 (0 no effect, 10 complete control)
# How it was run: as §1
# wild oat = assay: Test B pre/postemergence wild oat; format: in vivo, Avena fatua; details: for Wild oats plant response rating: Postemergence; for Plant response rating, Wild oats: Preemergence
# How it was run: as §1
# purple nutsedge = assay: Test B pre/postemergence purple nutsedge; format: in vivo, Cyperus rotundus; details: for Nutsedge plant response rating: Postemergence; for Plant response rating, Nutsedge: Preemergence
# How it was run: as §1
# cocklebur = assay: Test B pre/postemergence cocklebur; format: in vivo, Xanthium strumarium; details: for Cocklebur plant response rating: Postemergence; for Plant response rating, Cocklebur: Preemergence
# How it was run: as §1
# [1] = Rate 125 g/ha, scale of 0 to 10 where 0 is no effect and 10 is complete control
# [2] = Rate 1000 g/ha, scale 0 to 10 (0 no effect, 10 complete control)
# [3] = Rate 500 g/ha, scale of 0 to 10 where 0 is no effect and 10 is complete control
# [4] = Rate 250 g/ha, scale 0 to 10, 0 is no effect, 10 is complete control
# [5] = Rate 500 g/ha, scale 0 to 10, 0 is no effect, 10 is complete control
# [6] = Rate 250 g/ha, scale 0 to 10 (0 no effect, 10 complete control)
# [7] = Pre-emergence, Rate 1000 g/ha, scale 0 to 10 (0 no effect, 10 complete control)
# [8] = Rate 125 g/ha, under heading Pre-emergence, flood test species, visual evaluation after twelve to sixteen days
# [9] = Rate 250 g/ha, Pre-emergence (flood test species), scale 0 to 10, 0 is no effect, 10 is complete control
# [10] = Rate 500 g/ha, Pre-emergence section of Table B, 0 to 10 scale (0 no effect, 10 complete control)
structure (smiles),measurement,setting,value
COC(=O)C(c1ccccc1)n1c(=O)on(C(=O)N(c2ccc(F)cc2)C(C)C)c1=O (centres unmarked) [Compound 677],Sugarbeets plant response rating,sugar beet; [1],0
same,Sugarbeets plant response rating,sugar beet; [2],1
same,"Plant response rating, Sugarbeets",sugar beet; [1],0
same,"Plant response rating, Sugarbeets",sugar beet; [3],0
same,Sugarbeets plant response rating,sugar beet; [4],0
same,Sugarbeets plant response rating,sugar beet; [5],1
same,"Plant response rating, Sugarbeets",sugar beet; [2],7
same,B. signalgrass plant response rating,surinam grass; [1],0
same,B. signalgrass plant response rating,surinam grass; [2],1
same,"Plant response rating, B. signalgrass",surinam grass; [1],0
same,"Plant response rating, B. signalgrass",surinam grass; [6],3
same,"Plant response rating, B. signalgrass",surinam grass; [3],5
same,B. signalgrass plant response rating,surinam grass; [4],0
same,B. signalgrass plant response rating,surinam grass; [5],0
same,"Plant response rating, B. signalgrass",surinam grass; [2],9
same,Wheat plant response rating,wheat; [1],0
same,Wheat plant response rating,wheat; [2],0
same,"Plant response rating, Wheat",wheat; [1],0
same,"Plant response rating, Wheat",wheat; [3],0
same,Wheat plant response rating,wheat; [4],0
same,Wheat plant response rating,wheat; [5],0
same,"Plant response rating, Wheat",wheat; [2],0
same,Velvetleaf plant response rating,velvetleaf; [1],0
same,Velvetleaf plant response rating,velvetleaf; [2],3
same,"Plant response rating, Velvetleaf",velvetleaf; [1],0
same,"Plant response rating, Velvetleaf",velvetleaf; [3],0
same,Velvetleaf plant response rating,velvetleaf; [4],0
same,Velvetleaf plant response rating,velvetleaf; [5],3
same,"Plant response rating, Velvetleaf",velvetleaf; [2],0
same,Rape plant response rating,rape; [1],0
same,Rape plant response rating,rape; [2],0
same,"Plant response rating, Rape",rape; [1],0
same,"Plant response rating, Rape",rape; [3],0
same,Rape plant response rating,rape; [4],0
same,Rape plant response rating,rape; [5],0
same,"Plant response rating, Rape",rape; [2],3
same,Crabgrass plant response rating,crabgrass; [1],0
same,Crabgrass plant response rating,crabgrass; [2],6
same,"Plant response rating, Crabgrass",crabgrass; [1],3
same,"Plant response rating, Crabgrass",crabgrass; [6],6
same,"Plant response rating, Crabgrass",crabgrass; [3],7
same,Crabgrass plant response rating,crabgrass; [4],0
same,Crabgrass plant response rating,crabgrass; [5],4
same,"Plant response rating, Crabgrass",crabgrass; [2],9
same,Corn plant response rating,corn; [1],0
same,Corn plant response rating,corn; [2],0
same,"Plant response rating, Corn",corn; [1],0
same,"Plant response rating, Corn",corn; [6],0
same,"Plant response rating, Corn",corn; [3],0
same,Corn plant response rating,corn; [4],0
same,Corn plant response rating,corn; [5],0
same,"Plant response rating, Corn",corn; [2],0
same,Blackgrass plant response rating,blackgrass; [1],0
same,Blackgrass plant response rating,blackgrass; [2],4
same,"Plant response rating, Blackgrass",blackgrass; [1],0
same,"Plant response rating, Blackgrass",blackgrass; [6],0
same,"Plant response rating, Blackgrass",blackgrass; [3],0
same,Blackgrass plant response rating,blackgrass; [4],0
same,Blackgrass plant response rating,blackgrass; [5],1
same,"Plant response rating, Blackgrass",blackgrass; [2],4
same,Ducksalad plant response rating,duck salad; [7],0
same,"Ducksalad plant response rating (0 to 10 scale, 0 is no effect, 10 is complete control)",duck salad; [8],0
same,Ducksalad plant response rating,duck salad; [9],0
same,Ducksalad plant response rating,duck salad; [10],0
same,Rice plant response rating,rice; [7],0
same,"Rice plant response rating (0 to 10 scale, 0 is no effect, 10 is complete control)",rice; [8],0
same,Rice plant response rating,rice; [9],0
same,Rice plant response rating,rice; [10],0
same,Giant foxtail plant response rating,giant foxtail; [1],0
same,Giant foxtail plant response rating,giant foxtail; [2],5
same,"Plant response rating, Giant foxtail",giant foxtail; [1],5
same,"Plant response rating, Giant foxtail",giant foxtail; [3],10
same,Giant foxtail plant response rating,giant foxtail; [4],2
same,Giant foxtail plant response rating,giant foxtail; [5],4
same,"Plant response rating, Giant foxtail",giant foxtail; [2],10
same,Barnyardgrass plant response rating,bamyardgrass; [7],0
same,"Barnyardgrass plant response rating (0 to 10 scale, 0 is no effect, 10 is complete control)",bamyardgrass; [8],0
same,Barnyardgrass plant response rating,bamyardgrass; [9],0
same,Barnyardgrass plant response rating,bamyardgrass; [10],0
same,Morningglory plant response rating,morningglory; [1],2
same,"Plant response rating, Morningglory",morningglory; [1],0
same,"Plant response rating, Morningglory",morningglory; [3],0
same,Morningglory plant response rating,morningglory; [4],4
same,Morningglory plant response rating,morningglory; [5],7
same,"Plant response rating, Morningglory",morningglory; [2],0
same,Redroot pigweed plant response rating,pigweed; [1],2
same,Redroot pigweed plant response rating,pigweed; [2],4
same,"Plant response rating, Redroot pigweed",pigweed; [1],4
same,Redroot pigweed plant response rating,pigweed; [4],3
same,Redroot pigweed plant response rating,pigweed; [5],3
same,"Plant response rating, Redroot pigweed",pigweed; [2],8
same,S. Flatsedge plant response rating,smallflower flatsedge; [7],0
same,"S. Flatsedge plant response rating (0 to 10 scale, 0 is no effect, 10 is complete control)",smallflower flatsedge; [8],0
same,S. Flatsedge plant response rating,smallflower flatsedge; [9],0
same,S. Flatsedge plant response rating,smallflower flatsedge; [10],0
same,Soybean plant response rating,soybean; [1],0
same,Soybean plant response rating,soybean; [2],7
same,"Plant response rating, Soybean",soybean; [1],0
same,"Plant response rating, Soybean",soybean; [3],0
same,Soybean plant response rating,soybean; [4],1
same,Soybean plant response rating,soybean; [5],2
same,"Plant response rating, Soybean",soybean; [2],0
same,Bedstraw plant response rating,bedstraw,0
same,Wild oats plant response rating,wild oat; [1],0
same,Wild oats plant response rating,wild oat; [2],0
same,"Plant response rating, Wild oats",wild oat; [1],0
same,"Plant response rating, Wild oats",wild oat; [3],0
same,Wild oats plant response rating,wild oat; [4],0
same,Wild oats plant response rating,wild oat; [5],0
same,"Plant response rating, Wild oats",wild oat; [2],2
same,Nutsedge plant response rating,purple nutsedge; [1],0
same,Nutsedge plant response rating,purple nutsedge; [2],0
same,"Plant response rating, Nutsedge",purple nutsedge; [1],0
same,"Plant response rating, Nutsedge",purple nutsedge; [3],0
same,Nutsedge plant response rating,purple nutsedge; [4],0
same,Nutsedge plant response rating,purple nutsedge; [5],0
same,"Plant response rating, Nutsedge",purple nutsedge; [2],0
same,Cocklebur plant response rating,cocklebur; [1],0
same,Cocklebur plant response rating,cocklebur; [2],1
same,"Plant response rating, Cocklebur",cocklebur; [1],0
same,"Plant response rating, Cocklebur",cocklebur; [6],0
same,"Plant response rating, Cocklebur",cocklebur; [3],0
same,Cocklebur plant response rating,cocklebur; [4],0
same,Cocklebur plant response rating,cocklebur; [5],1
same,"Plant response rating, Cocklebur",cocklebur; [2],0
